Laboratory results as given in patent US12109184B2, “Personalized methods of treating cancer” (CANCER RESEARCH TECHNOLOGY LIMITED, priority 2020, dated 2024).
“Also recorded” adds a separate entry of the source.

Key:
Type in all cases: cell-based
[1] = system: MDA-MB-231, MIAPaCa-2 and PANC-1 cells; assay: Cell counting during cysteine starvation, starvation-sensitive cell lines
Description: (§1) The base medium formulation contained 0.2 mM L-histidine, 0.4 mM L-isoleucine, 0.4 mM L-leucine, 0.4 mM L-lysine, 0.2 mM L-phenylalanine, 0.4 mM L-threonine, 0.08 mM L-tryptophan, 0.4 mM L-valine, 0.2 mM L-arginine, 2 mM L-glutamine, 0.2 mM L-tyrosine, 0.4 mM L-alanine, 0.3 mM L-proline, 0.15 mM L-glutamic acid, 0.1 mM L-aspartic acid, 0.2 mM L-asparagine, and 0.4 mM glycine.
(§2) DAPI-stained cell nuclei were detected via microscopy.
(§3) AMD1 inhibitor sardomozide/SAM486A, GPX4 inhibitor RSL3, and CSE inhibitor beta-cyano-L-alanine were used.
(§4) For experiments using spermine oxidase (SMOX) and polyamine oxidase (PAOX) inhibitors or MTOB, cells were pre-treated with stated concentrations for 16 hours in complete medium. After pre-treatment, cells were washed in PBS, and treatment was continued in complete or cysteine-free medium for stated times. After treatment was finished, cells were fixed and stained as described above. For experiments using MTA, polyamines, GPX4 and CSE inhibitors, treatment started at the same time as cysteine starvation. For experiments involving hypoxic conditions, cells were seeded in normoxic conditions and allowed to adhere for 24 hours before control and cysteine starvation medium was added and cells were immediately transferred either to a humidified cell culture incubator set to 37° C. in 20% O2 (normoxia), or a hypoxia chamber set to 37° C. in 1% O2 (hypoxia) for the stated times. Cells were fixed immediately and stained as described above.

[2] = system: breast, colorectal and pancreatic cancer cell lines; assay: Cell counting in complete or cysteine-free medium, cell lines not given; conditions: for duration of rescue from cysteine starvation: AMD1 inhibitor or MTOB supplementation
Description: as §1, §2, §3, §4

[3] = system: MDA-MB-231, PANC-1, and MIAPaCa-2 cells; assay: CellROX assay on live cells, starvation-sensitive cell lines; conditions: −Cys, 16 h timepoint
Description: (§5) Cells were seeded as described above. Live cells were stained with Hoechst 33342 nuclear stain for 20 min. The medium was removed, and cells were stained in 100 μl medium containing CellTracker™ Green CMFDA Dye and Hoechst stain for 40 min. The cells were then washed with PBS, and 300 μl of the relevant experimental medium was added for 1 hour. Then, CellROX® Deep Red was spiked into the medium, and the cells were incubated for 40 min. The medium was removed, the cells were washed with PBS, and new relevant experimental medium including CellROX was added. The cells were imaged using an Operetta automated microscope platform set to 37° C. in 5% CO2 every hour for 16-24 hours. I

[4] = system: MDA-MB-231, PANC-1, and MIAPaCa-2 cells; assay: LC-MS analysis with labelled methionine (polyamine and TsP labelling); conditions: 20 μM sardomozide or 0.1 mM MTOB
Description: For experiments using labelled methionine, the same basic protocol was used as described for the steady state metabolite measurements described above. Experimental media were formulated lacking methionine or serine (described above) and supplemented with the stated concentrations of ^13C5^15N1-methionine, ^13C3^15N1-serine or ^34S1-methionine. Metabolites were extracted as described above.
Prepared samples were analyzed on an LC-MS platform consisting of an Accela™ 600 LC system and an Exactive™ mass spectrometer. A Sequant® ZIC®-HILIC column (4.6 mm×150 mm, 3.5 μm) was used to separate the metabolites with the mobile phase using A=0.1% (v/v) formic acid in water and B=0.1% (v/v) formic acid in acetonitrile. A gradient program starting at 20% of A and linearly increasing to 80% at 30 min was used followed by washing (92% of A for 5 mins) and re-equilibration (20% of A for 10 min) steps. The total run time of the method was 45 min. The LC stream was desolvated and ionized in the HESI probe. The Exactive™ mass spectrometer was operated in full scan mode over a mass range of 70-1,200 m/z at a resolution of 50,000 with polarity switching. The LC-MS raw data was converted into mzML files by using ProteoWizard and imported to MZMine 2.10 for peak extraction and sample alignment. An in-house database including all possible ^13C and ^15N isotopic m/z values of the relevant metabolites was used for the assignment of LCMS signals. Finally the peak areas were used for comparative quantification.

[5] = system: MTAP-deleted HCT116 cells; assay: Cell counting during cysteine starvation, MTAP-deleted HCT116; conditions: for cell survival during cysteine starvation: SMOX inhibitor, PAOX inhibitor or MTOB supplementation
Source text: [NT] Successfully transfected cells were selected with puromycin and grown as clonal colonies. Clones were selected based initially on MTA efflux measured by liquid chromatography mass spectrometry (LC-MS). Clones with greatest MTA efflux were selected, and methylthioadenosine phosphorylase knockout (MTAP-KO) was then confirmed by western blot. MTAP-KO HCT116 cells were transfected with pCMV-Hygro-MTAP and pCMV-Hygro-negative control vector, selected using hygromycin B, and grown as clonal colonies. Clones were selected based initially on MTA efflux measured by LC-MS. Clones with low MTA efflux were selected, then MTAP re-expression was confirmed by western blot. […] DAPI-stained cell nuclei were detected via microscopy. […] For experiments using spermine oxidase (SMOX) and polyamine oxidase (PAOX) inhibitors or MTOB, cells were pre-treated with stated concentrations for 16 hours in complete medium. After pre-treatment, cells were washed in PBS, and treatment was continued in complete or cysteine-free medium for stated times. After treatment was finished, cells were fixed and stained as described above. For experiments using MTA, polyamines, GPX4 and CSE inhibitors, treatment started at the same time as cysteine starvation. For experiments involving hypoxic conditions, cells were seeded in normoxic conditions and allowed to adhere for 24 hours before control and cysteine starvation medium was added and cells were immediately transferred either to a humidified cell culture incubator set to 37° C. in 20% O2 (normoxia), or a hypoxia chamber set to 37° C. in 1% O2 (hypoxia) for the stated times. Cells were fixed immediately and stained as described above.

[6] = system: HCT116, SW480 and MDA-MB-468 cells; assay: Cell counting during cysteine starvation, starvation-resistant cell lines; conditions: for cysteine starvation sensitivity on polyamine supplementation: polyamine 20 μM in medium without cysteine
Description: as §1, §2, §3, §4

[7] = system: cysteine starved cells; assay: CellROX assay on live cells supplemented with polyamines; conditions: polyamine 20 μM in medium without cysteine
Description: as §5

[8] = system: MTAP-expressing HCT116 cells; assay: Cell counting during cysteine starvation, MTAP-expressing HCT116; conditions: SMOX inhibitor, PAOX inhibitor or MTOB supplementation
Source text: [NT] Successfully transfected cells were selected with puromycin and grown as clonal colonies. Clones were selected based initially on MTA efflux measured by liquid chromatography mass spectrometry (LC-MS). Clones with greatest MTA efflux were selected, and methylthioadenosine phosphorylase knockout (MTAP-KO) was then confirmed by western blot. MTAP-KO HCT116 cells were transfected with pCMV-Hygro-MTAP and pCMV-Hygro-negative control vector, selected using hygromycin B, and grown as clonal colonies. Clones were selected based initially on MTA efflux measured by LC-MS. Clones with low MTA efflux were selected, then MTAP re-expression was confirmed by western blot. […] DAPI-stained cell nuclei were detected via microscopy. For experiments using spermine oxidase (SMOX) and polyamine oxidase (PAOX) inhibitors or MTOB, cells were pre-treated with stated concentrations for 16 hours in complete medium. After pre-treatment, cells were washed in PBS, and treatment was continued in complete or cysteine-free medium for stated times. After treatment was finished, cells were fixed and stained as described above. For experiments using MTA, polyamines, GPX4 and CSE inhibitors, treatment started at the same time as cysteine starvation. For experiments involving hypoxic conditions, cells were seeded in normoxic conditions and allowed to adhere for 24 hours before control and cysteine starvation medium was added and cells were immediately transferred either to a humidified cell culture incubator set to 37° C. in 20% O2 (normoxia), or a hypoxia chamber set to 37° C. in 1% O2 (hypoxia) for the stated times. Cells were fixed immediately and stained as described above.

Row | SMILES | duration of rescue from cysteine starvation [2] | levels of TsP intermediates [4] | polyamine synthesis (dc-SAM and polyamine labelling) [4] | cysteine starvation sensitivity on polyamine supplementation [6] | ROS levels (CellROX deep red) [7] | cell survival during cysteine starvation [5] | impact on cell survival during cysteine starvation [8] | other results
1 | N=C(N)N/N=C1\CCc2c(C(=N)N)cccc21 [sardomozide] | temporary | did not appreciably increase | marked inhibition of polyamine synthesis |  |  |  |  | cell death in response to cysteine starvation ([1]; AMD1 inhibitor pre-treatment 16 h): prevented cell death; ROS levels (CellROX staining intensity) ([3]; 20 μM AMD1 inhibitor): diminished ROS levels; cell survival in response to cysteine starvation ([5]; AMD1 inhibitor): restored cell survival
2 | NCCCNCCCCNCCCN [spermine] |  |  |  | dramatic impact; also recorded: dramatically sensitized cells to cysteine starvation | rapid increase in ROS levels; also recorded: increased cellular ROS levels |  |  | 
3 | C=C=CCNCCCCNCC=C=C [MDL 72527] |  |  |  |  |  | rescued cell survival | little impact | cell death during cysteine starvation ([1]; SMOX inhibitor 50 μM or PAOX inhibitor 10, 40, 80 μM, 16 h pre-treatment then −Cys): prevented cell death; cell survival and growth under polyamine treatment concurrent with cysteine starvation ([6]; SMOX and PAOX inhibitors with spermidine or spermine, −Cys): restored HCT116, SW480, and MDA-MB-468 cell survival and growth; advantage during cysteine starvation ([6]; SMOX or PAOX inhibitor, 16 h pre-treatment then −Cys): little or no additional advantage; ROS levels (CellROX staining intensity) ([3]; 50 μM SMOX inhibitor): allowed cells to maintain lower ROS levels
4 | NCCCCNCCCN [spermidine] |  |  |  | dramatic impact; also recorded: dramatically sensitized cells to cysteine starvation | rapid increase in ROS levels; also recorded: increased cellular ROS levels |  |  | 
5 | CSCCC(=O)C(=O)O [MTOB, 4-methylthio-2-oxobutanoic acid] | temporary | did not appreciably increase | marked inhibition of polyamine synthesis |  |  | rescued cell survival | little impact | rescue from cysteine starvation ([2]; 0.1 mM MTOB 16 h pre-treatment, then −Cys with MTOB 32 h): rescued cells from cysteine starvation
